Assay results published in patent US7999000B2, “N-(2-amino-phenyl)-acrylamides” (Hoffmann-La Roche Inc., priority 2008, dated 2011).

What was measured:
[1] = tested on: histone deacetylase (HeLa nuclear extract); experiment: HeLa extract HDAC fluorometric assay; assay type: biochemical; details: relative inhibitory potency compared with SNDX-275 at 30 micromolar
Description: HDAC Inhibition by Novel Compounds: HeLa Extract HDAC Fluorometric Assay
Novel compounds were tested for their ability to inhibit histone deacetylase using an in vitro deacetylation assay. The enzyme source for this assay was HeLa nuclear extract. The substrate consisted of a commercial product containing an acetylated lysine side chain (both HeLa extract and substrate are available commercially from BIOMOL Research Laboratories, Inc., Plymouth Meeting, Pa.). After deacetylation of the substrate by incubation with HeLa nuclear extract, subsequent exposure to a developing reagent produces a fluorophore that is directly proportional to the level of deacetylation. Using the substrate concentration at the Km for the HeLa nuclear extract, the deacetylation assay was performed in the presence of novel compounds at 30 micromolar and the percent enzyme inhibition relative to a known reference HDAC inhibitor (SNDX-275) was determined. […] Inhibitory activity for specific representative compounds can be found in Table 3.

[2] = tested on: p21 promoter-luciferase construct in HeLa cells; experiment: p21 reporter gene induction; assay type: cell-based; details: relative induction potency compared with SNDX-275 at 3 micromolar
Description: p21 Reporter Gene Induction By Novel Compounds
The novel compounds of the present invention were tested for their ability to induce p21 gene expression using a reporter gene assay involving HeLa cells transfected with a p21 promoter-luciferase construct. The p21 promoter contained the Sp1/Sp3 binding site for HDAC but not the upstream p53 binding site. Briefly, the day before transfection, HeLa cells were seeded at 11,000 cells/well in a 96-well culture plate and incubated at 37 degrees Celsius in 5% CO2 overnight. For transfection, the medium was removed and replaced with 100 microliters/well transfection media previously prepared as follows: 5 microliters serum-free DMEM, 0.15 microliters Fugene 6 reagent, 40 ng p21-luc, 10 ng GFP were mixed gently and incubated at room temperature for 30 minutes; then 98 microliters DMEM (with 10% FBS, 1% penicillin and streptomycin) was added to the DNA:Fugene 6 reagent complex and mixed gently. After incubating the cells for 24 hours at 37 degrees Celsius in 5% CO2, fresh media and test compounds were added to the wells and the cells further incubated for 15 hours at 37 degrees Celsius in 5% CO2. Cells were lysed by adding 80 microliters/well of a cell culture lysis reagent (Promega). 50 microliters of each lysate was taken for GFP detection using an excitation wavelength of 486 nm and detection at 527 nm. 100 microliters Luciferase assay reagent (Promega) was then added to every 20 microliters cell lysate for luminometer detection. […] Induction activity for specific representative compounds can be found in Table 3.

[3] = tested on: klf2 promoter-luciferase construct in A204 cells; experiment: klf2 reporter gene induction (p21 versus klf2 selectivity); assay type: cell-based; details: for p21/klf2 (RP3): relative selectivity at 3 micromolar compared with SNDX-275 (p21/klf2 ratio defined as 1.0); for p21/klf2 (RP10): relative selectivity at 10 micromolar compared with SNDX-275 (p21/klf2 ratio defined as 1.0)
Description: klf2 Reporter Gene Induction By Novel Compounds
The novel compounds of the present invention were tested for their ability to induce klf2 gene expression using a reporter gene assay involving A204 cells transfected with a klf2 promoter-luciferase construct. The klf2 promoter contained the MEF2 binding site for HDAC3/class IIa HDAC complex. Briefly, the day before transfection, A204 cells were seeded at 11,000 cells/well in a 96-well culture plate and incubated at 37 degrees Celsius in 5% CO2 overnight. For transfection, the medium was removed and replaced with 100 microliters/well transfection media previously prepared as follows: 5 microliters serum-free DMEM, 0.15 microliters Fugene 6 reagent, 40 ng klf2-luc, 10 ng GFP were mixed gently and incubated at room temperature for 30 minutes; then 98 microliters DMEM (with 10% FBS, 1% penicillin and streptomycin) was added to the DNA:Fugene 6 reagent complex and mixed gently. After incubating the cells for 24 hours at 37 degrees Celsius in 5% CO2, fresh media and test compounds were added to the wells and the cells further incubated for 15 hours at 37 degrees Celsius in 5% CO2. Finally, 10 ng/ml TNF-a was added and the cells further incubated for 4 hours. Cells were lysed by adding 80 microliters/well of a cell culture lysis reagent (Promega). 50 microliters of each lysate was taken for GFP detection using an excitation wavelength of 486 nm and detection at 527 nm. 100 microliters Luciferase assay reagent (Promega) was then added to every 20 microliters cell lysate for luminometer detection.

[4] = tested on: HT-29 colon cancer cells; experiment: Antiproliferative activity, growth inhibition assay (MTS/WST); assay type: cell-based; details: Homo sapiens, 72 hour, read-out: GI50 (micromolar) HT-29
Description: Antiproliferative Activity Against Cancer Cell Lines By Novel Compounds
The novel compounds of the present invention were tested for their ability to inhibit growth of various cancer cell lines using in vitro growth inhibition assays described below.
Cells were seeded in 96-well culture plates (200 microliters/well at different seeding concentrations depending on cell type) and incubated overnight at 37 degrees Celsius in 5% CO2. After adding compound dilutions to the cells (DMSO concentration kept below 0.5%), the cells were incubated at 37 degrees Celsius in 5% CO2 for 72 hours. The effects on proliferation were determined by addition of MTS reagent (Promega) according to the manufacturer's instruction, followed by incubation for 2 hours at 37 degrees Celsius in 5% CO2, and finally recording the absorbance at 490 nm using an ELISA plate reader.
Similar to MTS assay except that the developer is the CCK-8 reagent (Dojindo) and the plate reader is set to 450 nm absorbance.
GI50 values against HT-29 colon cancer cells for specific representative compounds can be found in Table 3.

Row | HD (RP30) [1] | GI50 [4] | Structure (SMILES) | p21 (RP3) [2] | p21/klf2 (RP3) [3] | p21/klf2 (RP10) [3]
1 | 175% | 3 µM | CN(C)[C@@H]1CCN(C(C(=O)Nc2ccc(C(F)(F)F)cc2)c2ccc(/C=C/C(=O)Nc3ccccc3N)cc2)C1 (stereo partly drawn) [Example 7-6, (E)-N-(2-Amino-phenyl)-3-{4-[((R)-3-dimethylamino-pyrrolidin-1-yl)-(4-trifluoromethyl-phenylcarbamoyl)-methyl]-phenyl}-acrylamide] | 216% | 2.3 | 2.9
2 | 183% | 2.3 µM | CCN(CC)C1CCN(C(C(=O)Nc2ccc(C(F)(F)F)cc2)c2ccc(/C=C/C(=O)Nc3ccccc3N)cc2)C1 (stereo not shown) [Example 7-7, (E)-N-(2-Amino-phenyl)-3-{4-[(3-diethylamino-pyrrolidin-1-yl)-(4-trifluoromethyl-phenylcarbamoyl)-methyl]-phenyl}-acrylamide] | 230% | 2.1 | 2.0
3 | 159% | 0.2 µM | CCN(CC)C1CCN(C(C(=O)Nc2ccc(C#N)cc2)c2ccc(/C=C/C(=O)Nc3ccccc3N)cc2)C1 (stereo not shown) [Example 7-16, (E)-N-(2-Amino-phenyl)-3-{4-[(4-cyano-phenylcarbamoyl)-(3-diethylamino-pyrrolidin-1-yl)-methyl]-phenyl}-acrylamide] | 157% | 0.7 | 0.9
4 | 164% | 0.7 µM | CCN(CC)C1CCN(C(C(=O)Nc2ccc(F)cc2)c2ccc(/C=C/C(=O)Nc3ccccc3N)cc2)C1 (stereo not shown) [Example 7-17, (E)-N-(2-Amino-phenyl)-3-{4-[(3-diethylamino-pyrrolidin-1-yl)-(4-fluoro-phenylcarbamoyl)-methyl]-phenyl}-acrylamide] | 163% | 0.7 | 1.0
5 | 144% |  | CCN(CCO)C1CCN(C(C(=O)Nc2ccc(Br)cc2)c2ccc(/C=C/C(=O)Nc3ccccc3N)cc2)C1 (stereo not shown) [Example 7-29, (E)-N-(2-Amino-phenyl)-3-[4-((4-bromo-phenylcarbamoyl)-{3-[ethyl-(2-hydroxy-ethyl)-amino]-pyrrolidin-1-yl}-methyl)-phenyl]-acrylamide] | 293% | 1.2 | 1.4
6 | 111% | 0.7 µM | Nc1ccccc1NC(=O)/C=C/c1ccc(C(C(=O)Nc2ccc(Br)cc2)N2CCC(N3CCCCC3)C2)cc1 (stereo not shown) [Example 7-30, (E)-N-(2-Amino-phenyl)-3-{4-[(4-bromo-phenylcarbamoyl)-(3-piperidin-1-yl-pyrrolidin-1-yl)-methyl]-phenyl}-acrylamide] | 338% | 1.2 | 0.1
7 | 163% | 0.4 µM | CCN(CC)C1CCN(C(C(=O)Nc2ccc(Cl)cc2)c2ccc(/C=C/C(=O)Nc3ccccc3N)cc2)C1 (stereo not shown) [Example 7] | 187% | 0.8 | 1.2
